The text below walks through data of ChEMBL document CHEMBL1921738, “A small molecule that preferentially binds the closed conformation of Hsp90” (Bioorg Med Chem Lett, 2011).

pKd: −log10 of the molar value. Activity calls are given as the source filed them. The rule behind the calls is not given here. Side chains are listed from the residue outwards. Peptide text beside a SMILES is read from it. * marks the point of attachment. Biotin = O=C1N[C@H]2[C@H](CS[C@H]2CCCCC(=O)*)N1; PEG4 = NCCOCCOCCOCCOCCC(=O)O

The subject of one data set is Jurkat. Kind of data set: Cytotoxicity against human Jurkat T-lymphoblastoid leukemia cells after 24 to 48 hrs by MTS assay. Type of data set: cell-based.
The nature of data set [1]: Binding affinity to Saccharomyces cerevisiae Hsc82 open apo state by fluorescence polarization anisotropy method.
Data set [2] is described as follows: Binding affinity to Saccharomyces cerevisiae Hsc82 closed state by fluorescence polarization anisotropy method in presence of non-hydrolyzable ATP analog AMPPNP.
Data set [3] concerns the target T1, Heat shock protein HSP 90-beta (Homo sapiens, UniProt P08238). Kind of data set: Binding affinity to human Hsp90 closed state by fluorescence polarization anisotropy.
The target of data set [4] is T1, Heat shock protein HSP 90-beta. Kind of data set: Binding affinity to Hsp90 after 1 hrs by Western blotting.
For data set [5] the target is unchanged. The experiment in a line: Binding affinity to human Hsp90 open state by fluorescence polarization anisotropy.

T1 sequence (P08238 whole entry): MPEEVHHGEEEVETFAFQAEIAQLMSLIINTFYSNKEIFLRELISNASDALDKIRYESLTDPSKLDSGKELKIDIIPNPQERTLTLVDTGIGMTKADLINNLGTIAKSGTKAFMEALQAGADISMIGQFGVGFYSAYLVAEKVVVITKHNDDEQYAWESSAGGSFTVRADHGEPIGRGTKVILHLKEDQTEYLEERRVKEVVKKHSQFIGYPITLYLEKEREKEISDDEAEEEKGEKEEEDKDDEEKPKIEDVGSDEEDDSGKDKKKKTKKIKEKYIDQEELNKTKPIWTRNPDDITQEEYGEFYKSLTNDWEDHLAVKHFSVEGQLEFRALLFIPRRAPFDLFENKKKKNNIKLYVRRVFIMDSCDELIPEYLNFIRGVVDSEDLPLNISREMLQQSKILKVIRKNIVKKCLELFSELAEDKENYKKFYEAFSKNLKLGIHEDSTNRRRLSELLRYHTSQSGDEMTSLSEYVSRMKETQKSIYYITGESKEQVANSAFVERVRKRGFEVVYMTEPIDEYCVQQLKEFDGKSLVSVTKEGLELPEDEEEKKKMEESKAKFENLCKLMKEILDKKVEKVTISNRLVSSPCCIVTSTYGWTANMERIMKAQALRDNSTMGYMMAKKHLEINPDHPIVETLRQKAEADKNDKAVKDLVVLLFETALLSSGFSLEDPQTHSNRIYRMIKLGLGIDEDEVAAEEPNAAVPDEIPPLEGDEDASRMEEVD

In the data set with Jurkat, `CO[C@@H]1[C@@H](OC(N)=O)[C@@H](O)[C@H](Oc2ccc3c(O)c(NC(=O)c4ccc(O)c(CC=C(C)C)c4)c(=O)oc3c2C)OC1(C)C` [NOVOBIOCIN] came in with an Activity of 700 µM.

`CC(C)C[C@@H]1NC(=O)[C@H](CCCCNC(=O)OCc2ccccc2)NC(=O)[C@H](Cc2ccccc2)NC(=O)[C@@H](Cc2ccccc2)N(C)C(=O)[C@H](CCCCNC(=O)c2ccc(C(=O)O)c(-c3c4ccc(=O)cc-4oc4cc(O)ccc34)c2)NC1=O`: the negative-log Kd (pKd) in data set [1] was 4.24; in data set [2] it was 4.57.

Turning to `CC(C)[C@@H]1NC(=O)[C@H](CCCCNC(=O)c2ccc(C(=O)O)c(-c3c4ccc(=O)cc-4oc4cc(O)ccc34)c2)NC(=O)[C@H](CCCCNC(=O)OCc2ccccc2)NC(=O)[C@H](Cc2ccccc2)NC(=O)[C@@H](Cc2ccccc2)N(C)C1=O`, the pKd in data set [1] is 3.99; in data set [2], 4.26.

As for `CC(C)C[C@@H]1NC(=O)[C@H](Cc2ccccc2)NC(=O)[C@H](CC(C)C)NC(=O)[C@H](C(C)C)NC(=O)[C@H](CC(C)C)NC1=O` (cyclo(FLLVL)), in data set [3], the pKd was 4.00.

In turn, `CC(C)C[C@@H]1NC(=O)[C@H](Cc2ccccc2)NC(=O)[C@H](CC(C)C)NC(=O)[C@H](C(C)C)NC(=O)[C@H](CCCCNC(=O)CCOCCOCCOCCOCCNC(=O)CCCC[C@@H]2SC[C@@H]3NC(=O)N[C@@H]32)NC1=O` (cyclo(FLK([PEG4-Biotin])VL)) had a pKd in data set [4] of 4.70.

On to `CC(C)C[C@@H]1NC(=O)[C@H](CCCCNC(=O)OCc2ccccc2)NC(=O)[C@H](Cc2ccccc2)NC(=O)[C@@H](Cc2ccccc2)N(C)C(=O)[C@H](C(C)C)NC1=O`, for which the outcome in data set [5] and in data set [3] was Active.

On to `CC(C)C[C@@H]1NC(=O)[C@H](CCCCNC(=O)OCc2ccccc2)NC(=O)[C@H](CCCCNC(=O)c2ccc(C(=O)O)c(-c3c4ccc(=O)cc-4oc4cc(O)ccc34)c2)NC(=O)[C@@H](Cc2ccccc2)N(C)C(=O)[C@H](C(C)C)NC1=O`, for which the pKd in data set [1] was 3.74; in data set [2] it was 3.92.
